Biological target: T1, androgen receptor (AR) splicing variant AR-v7 (Homo sapiens, UniProt P10275)
T1 construct: The degradation activity of compounds on AR-v7 in 22RV1 cells; host or cells: 22RV1 cells
T1 sequence (P10275 1-644 isoform P10275-3): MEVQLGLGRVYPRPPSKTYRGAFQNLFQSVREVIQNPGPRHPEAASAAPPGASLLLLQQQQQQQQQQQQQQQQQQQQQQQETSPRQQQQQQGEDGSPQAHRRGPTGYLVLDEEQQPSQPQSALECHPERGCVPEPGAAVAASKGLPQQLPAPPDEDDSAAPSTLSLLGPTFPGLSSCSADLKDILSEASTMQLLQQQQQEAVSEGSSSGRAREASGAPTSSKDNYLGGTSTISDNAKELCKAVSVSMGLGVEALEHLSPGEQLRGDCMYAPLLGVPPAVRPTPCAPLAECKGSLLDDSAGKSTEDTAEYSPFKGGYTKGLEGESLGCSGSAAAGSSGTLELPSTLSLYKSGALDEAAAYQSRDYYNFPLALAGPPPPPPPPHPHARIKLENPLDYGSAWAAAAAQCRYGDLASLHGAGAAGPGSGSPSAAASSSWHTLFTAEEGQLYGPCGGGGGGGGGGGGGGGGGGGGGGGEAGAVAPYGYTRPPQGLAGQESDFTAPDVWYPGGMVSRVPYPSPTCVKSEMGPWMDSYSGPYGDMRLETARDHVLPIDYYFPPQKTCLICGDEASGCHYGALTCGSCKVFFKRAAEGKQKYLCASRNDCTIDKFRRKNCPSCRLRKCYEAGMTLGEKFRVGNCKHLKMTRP
Assay: Degradation activity on androgen receptor splicing variant AR-v7 in 22RV1 cells (ELISA)
Assay type: cell-based
Details: AR-v7 degradation in 22RV1 cells, 48 h

## CC(=O)c1nccc(COc2ccc(C(C)(C)c3ccc(OCCCCCCCCOCC4CN(c5ccc6c(c5)C(=O)N(C5CCC(=O)NC5=O)C6=O)C4)cc3)cc2)n1 (stereo not drawn) [Example 298]
Numeric values
  DC50: > 10000 nM

## Cc1nc(-c2ccc(Oc3ccc(C4(c5ccc(O[C@H]6C[C@H](Nc7ccc8c(c7)C(=O)N(C7CCC(=O)NC7=O)C8=O)C6)cc5)CC4)cc3)nn2)no1 (stereo partly drawn) [Example 376, 2-(2,6-dioxopiperidin-3-yl)-5-(((1r,3r)-3-(4-(1-(4-((6-(5-methyl-1,2,4-oxadiazol-3-yl)pyridazine-3-yl)oxy)phenyl)cyclopropyl)phenoxy)cyclobutyl)amino)isoindolin-1,3-dione]
Class symbols
  DC50: 11 to 100 nM

## CC(C)(c1ccc(OCCCCCCCCOCCCCNc2ccc3c(c2)C(=O)N(C2CCC(=O)NC2=O)C3=O)cc1)c1ccc(OCc2ccnc(NS(=O)(=O)C3CC3)n2)cc1 (stereo not drawn) [Example 50]
Class symbols
  DC50: 101 to 1000 nM

## Cc1noc(-c2ncc(Oc3ccc(C(C)(C)c4ccc(O[C@H]5C[C@@H](Nc6ccc7c(c6)C(=O)N(C6CCC(=O)NC6=O)C7=O)C5)cc4)cc3)cn2)n1 (stereo partly drawn) [Example 263]
Class symbols
  DC50: 11 to 100 nM

## Cc1nc(-c2ccc(Oc3ccc(C(C)(C)c4ccc(O[C@H]5C[C@@H](Nc6ccc7c(c6)C(=O)N(C6CCC(=O)NC6=O)C7=O)C5)cc4)cc3)cn2)no1 (stereo partly drawn) [Example 597, 2-(2,6-dioxopiperidin-3-yl)-5-(((1s,3s)-3-(4-(2-(4-((6-(5-methyl-1,2,4-oxadiazol-3-yl)pyridin-3-yl)oxy)phenyl)propan-2-yl)phenoxy)cyclobutyl)amino)isoindolin-1,3-dione]
Class symbols
  DC50: 11 to 100 nM

## CC(C)(c1ccc(OCc2ccnc(N3CC4CNCC4C3)n2)cc1)c1ccc(OC2CC(Nc3ccc4c(c3)C(=O)N(C3CCC(=O)NC3=O)C4=O)C2)cc1 (stereo not drawn) [Example 80]
Class symbols
  DC50: 11 to 100 nM

## CC(C)(c1ccc(Oc2cnc(N)nn2)cc1)c1ccc(O[C@H]2C[C@H](Nc3ccc4c(c3)C(=O)N(C3CCC(=O)NC3=O)C4=O)C2)cc1 (stereo partly drawn) [Example 215]
Class symbols
  DC50: 11 to 100 nM

## Cc1nc(-c2nccc(Oc3ccc(C(C)(C)c4ccc(O[C@H]5C[C@@H](Nc6ccc7c(c6)C(=O)N(C6CCC(=O)NC6=O)C7=O)C5)cc4)cc3)n2)no1 (stereo partly drawn) [Example 292]
Class symbols
  DC50: 11 to 100 nM

## CC(=O)Nc1nccc(COc2ccc(C(C)(C)c3ccc(OCCCCCCCCOCCCCNc4ccc5c(c4)C(=O)N(C4CCC(=O)NC4=O)C5=O)cc3)cc2)n1 (stereo not drawn) [Example 26, N-(4-((4-(2-(4-((8-(4-((2-(2,6-dioxopiperidin-3-yl)-1,3-dioxoisoindolin-5-yl)amino)butoxy)octyl)oxy)phenyl)propan-2-yl)phenoxy)methyl)pyrimidin-2-yl)acetamide]
Class symbols
  DC50: 1000 to 5000 nM

## CC(C)(c1ccc(OCc2ccnc(N3CC4(COC4)C3)n2)cc1)c1ccc(OC2CCC[C@@H](Nc3ccc4c(c3)C(=O)N(C3CCC(=O)NC3=O)C4=O)C2)cc1 (stereo in doubt) [Example 493, 5-((3-(4-(2-(4-((2-(2-oxa-6-azaspiro[3.3]heptan-6-yl)pyrimidin-4-yl)methoxy)phenyl)propan-2-yl)phenoxy)cyclohexyl)amino)-2-(2,6-dioxopiperidin-3-yl)isoindolin-1,3-dione]
Class symbols
  DC50: 101 to 1000 nM

## Cc1noc(-c2nccc(COc3ccc(C(C)(C)c4ccc(O[C@H]5C[C@H](Nc6ccc7c(c6)C(=O)N(C6CCC(=O)NC6=O)C7=O)C5)cc4)cc3)n2)n1 (stereo partly drawn) [Example 250]
Class symbols
  DC50: 11 to 100 nM

## Cc1nc(-c2ccc(Oc3ccc(C(C)(C)c4ccc(OC5CC(Nc6ccc7c(c6)C(=O)N(C6CCC(=O)NC6=O)C7=O)C5)cc4)cc3)cn2)no1 (stereo not drawn) [Example 543, 2-(2,6-dioxopiperidin-3-yl)-5-(1s,3s)-3-(4-(2-(4-(6-(5-methyl-1,2,4-oxadiazol-3-yl)pyridin-3-yl)oxy)phenyl)propan-2-yl)phenoxy)cyclobutyl)amino) isoindolin-1,3-dione]
Class symbols
  DC50: 11 to 100 nM

## CC(C)(c1ccc(OCCCCCCCCOCCCCNc2ccc3c(c2)C(=O)N(C2CCC(=O)NC2=O)C3=O)cc1)c1ccc(N2CCc3cnc(N4CC5(COC5)C4)nc3C2)cc1 (stereo not drawn) [Example 65, 5-((4-((8-(4-(2-(4-(2-(2-oxa-6-azaspiro[3.3]heptan-6-yl)-5,8-dihydropyrido[3,4-d]pyrimidin-7(6H)-yl)phenyl)propan-2-yl)phenoxy)octyl)oxy)butyl)amino)-2-(2,6-dioxopiperidin-3-yl)isoindolin-1,3-dione]
Numeric values
  DC50: > 10000 nM

## C=CC(=O)Nc1nccc(COc2ccc(C(C)(C)c3ccc(OCCCCCCCCOCCN4CCN(c5ccc6c(c5)C(=O)N(C5CCC(=O)NC5=O)C6=O)CC4)cc3)cc2)n1 (stereo not drawn) [Example 227]
Numeric values
  DC50: > 10000 nM

## CC(=O)c1nccc(COc2ccc(C(C)(C)c3ccc(OCCCCCNc4ccc5c(c4)C(=O)N(C4CCC(=O)NC4=O)C5=O)cc3)cc2)n1 (stereo not drawn) [Example 342, 5-((5-(4-(2-(4-((2-acetylpyrimidin-4-yl)methoxy)phenyl)isopropan-2-yl)phenoxy)pentyl)amino)-2-(2,6-dioxopiperidin-3-yl)isoindolin-1,3-dione]
Numeric values
  DC50: > 10000 nM

## Cc1nc(COc2ccc(C(C)(C)c3ccc(OCCCNc4cccc5c4C(=O)N(C4CCC(=O)NC4=O)C5=O)cc3)cc2)cs1 (stereo not drawn) [Example 224, 2-(2,6-dioxopiperidin-3-yl)-4-((3-(4-(2-(4-((2-methylthiazol-4-yl)methoxy)phenyl)propan-2-yl)phenoxy)propyl)amino)isoindolin-1,3-dione]
Class symbols
  DC50: 101 to 1000 nM

## CC(C)(c1ccc(OCc2ccnc(-c3cncs3)n2)cc1)c1ccc(O[C@H]2C[C@H](Nc3ccc4c(c3)C(=O)N(C3CCC(=O)NC3=O)C4=O)C2)cc1 (stereo partly drawn) [Example 272]
Class symbols
  DC50: 11 to 100 nM

## Cc1nc(-c2cc(Oc3ccc(C(C)(C)c4ccc(O[C@H]5C[C@H](Nc6ccc7c(c6)C(=O)N(C6CCC(=O)NC6=O)C7=O)C5)cc4)cc3)ccn2)no1 (stereo partly drawn) [Example 167, 2-(2,6-dioxopyridin-3-yl)-5-(((1r,3r)-3-(4-(2-((4-(2-(5-methyl-1,2,4-oxadiazol-3-yl)pyridin-4-yl)oxy)phenyl)propan-2-yl)phenoxy)cyclobutyl)amino) isoindolin-1,3-dione]
Class symbols
  DC50: 11 to 100 nM

## CC(C)(c1ccc(OCc2nccc(N3CC4(COC4)C3)n2)cc1)c1ccc(O[C@H]2C[C@@H](Nc3ccc4c(c3)C(=O)N(C3CCC(=O)NC3=O)C4=O)C2)cc1 (stereo partly drawn) [Example 545]
Class symbols
  DC50: 11 to 100 nM

## CC(C)(c1ccc(OCc2ccnc(N3CCC4(CC3)COC4)n2)cc1)c1ccc(O[C@H]2C[C@@H](Nc3ccc4c(c3)C(=O)N(C3CCC(=O)NC3=O)C4=O)C2)cc1 (stereo partly drawn) [Example 87, 5-(((1s,3s)-3-(4-(2-(4-((2-(2-oxa-7-azaspiro[3.5]nonan-7-yl)pyrimidin-4-yl)methoxy)phenyl)propan-2-yl)phenoxy)cyclobutyl)amino)-2-(2,6-dioxopiperidin-3-yl)isoindolin-1,3-dione]
Class symbols
  DC50: 11 to 100 nM

## CC(C)(c1ccc(CCNc2ccc3c(c2)C(=O)N(C2CCC(=O)NC2=O)C3=O)cc1)c1ccc(OCc2ccnc(N3CC4(COC4)C3)n2)cc1 (stereo not drawn) [Example 318, 5-((4-(2-(4-((2-(2-oxa-6-azaspiro[3.3]heptan-6-yl)pyrimidin-4-yl)methoxy)phenyl)propan-2-yl)phenylethyl)amino)-2-(2,6-dioxopiperidin-3-yl)isoindolin-1,3-dione]
Class symbols
  DC50: 101 to 1000 nM

## CC(C)(c1ccc(OCc2ccnc(N3CC4(COC4)C3)n2)cc1)c1ccc(O[C@H]2CC[C@@H](Nc3ccc4c(c3)C(=O)N(C3CCC(=O)NC3=O)C4=O)CC2)cc1 (stereo partly drawn) [Example 153, 5-(((1s,4s)-4-(4-(2-(4-((2-(2-oxa-6-azaspiro[3.3]heptan-6-yl)pyrimidin-4-yl)methoxy)phenyl)propan-2-yl)phenoxy)cyclohexyl)amino)-2-(2,6-dioxopyridin-3-yl)isoindolin-1,3-dione]
Class symbols
  DC50: 101 to 1000 nM

## CC(C)(c1ccc(OCCCOc2ccc3c(c2)C(=O)N(C2CCC(=O)NC2=O)C3=O)cc1)c1ccc(OCc2ccnc(N3CC4(COC4)C3)n2)cc1 (stereo not drawn) [Example 113, 5-(3-(4-(2-(4-((2-(2-oxa-6-azaspiro[3.3]heptan-6-yl)pyrimidin-4-yl)methoxy)phenyl)propan-2-yl)phenoxy)propoxy)-2-(2,6-dioxopiperidin-3-yl)isoindolin-1,3-dione]
Class symbols
  DC50: 1000 to 5000 nM

## CN(C(=O)c1ccc(C(C)(C)c2ccc(OCc3ccnc(N4CC5(COC5)C4)n3)cc2)cc1)C1CN(c2ccc3c(c2)C(=O)N(C2CCC(=O)NC2=O)C3=O)C1 (stereo not drawn) [Example 508, 4-(2-(4-((2-(2-oxa-6-azaspiro[3.3]heptan-6-yl)pyrimidin-4-yl)methoxy)phenyl)propan-2-yl)-N-(1-(2-(2,6-dioxopiperidin-3-yl)-1,3-dioxoisoindolin-5-yl)azetidin-3-yl)-N-methylbenzamide]
Class symbols
  DC50: 101 to 1000 nM

## CC(C)(c1ccc(OCc2ccnc(N3CC4(COC4)C3)n2)cc1)c1ccc(OC[C@@H]2CCN2Cc2ccc3c(c2)C(=O)N(C2CCC(=O)NC2=O)C3=O)cc1 (stereo partly drawn) [Example 566]
Class symbols
  DC50: 1000 to 5000 nM

## CC(=O)c1nccc(COc2ccc(C(C)(C)c3ccc(OC[C@H]4CCCN4c4ccc5c(c4)C(=O)N(C4CCC(=O)NC4=O)C5=O)cc3)cc2)n1 (stereo partly drawn) [Example 144, 5-((R)-2-((4-(2-(4-((2-acetylpyrimidin-4-yl)methoxy)phenyl)propan-2-yl)phenoxy)methyl)pyrrolidin-1-yl)-2-(2,6-dioxopiperidin-3-yl)isoindolin-1,3-dione]
Class symbols
  DC50: 1000 to 5000 nM

## CC(C)(c1ccc(Oc2nc(N3CC4(COC4)C3)ncc2F)cc1)c1ccc(O[C@H]2C[C@@H](Nc3ccc4c(c3)C(=O)N(C3CCC(=O)NC3=O)C4=O)C2)cc1 (stereo partly drawn) [Example 158]
Class symbols
  DC50: 11 to 100 nM

From patent US20250051347A1, “BIFUNCTIONAL CHIMERIC HETEROCYCLIC COMPOUND AND USE THEREOF AS ANDROGEN RECEPTOR DEGRADER” (Hinova Pharmaceuticals, Inc., priority 2021, published 2025)
